Measurements as given in patent publication US5984868A, “Device for measuring an absorbed dose of gas by skin and method therefor” (Institute of Occupational Safety and Health, Council of …, priority 1998, dated 1999).
Values joined by “and” are separate entries in the source; they are usually repeats but may differ in a detail not shown here. Identical values can stand only once.

Assays:
[1] = general statement, no test shown; cited from earlier work
[2] = 2-methoxy ethanol dose in the subject's exhalation; type: in vivo; details: human, exhaled air, topical or ocular; of the total absorbed dose; read-out: 2-methoxy ethanol doses in the subject's exhalation, share of total absorbed dose
From the text: (§1) According, m5 can be justifiably ignored.

[3] = Johanson et al, 1988; cited from earlier work
[4] = tested on: skin; test: Absorbed dose of vapor by skin in exposure chamber (Embodiment 2, 25±1.5 ppm); details: 25±1.5 ppm vapor
From the text: The test concentration of the hazardous gas is 25 ppm in compliance with the allowable limit set forth by OSHA. In light of the lack of an exposure chamber large enough to accommodate a human body in its entirety, a small exposure chamber was used to investigate the absorption of the hazardous gas by the skin of an arm. On the basis of the result of the hand, the absorption of the hazardous gas by the skin of the whole body was estimated. […] The hand and the arm of a worker are often exposed on the job and are therefore used as subjects of the investigation. It is also assumed that the gas absorption rate of the skin of a hand is about equal to the average value of the gas absorption rate of the skin of the whole body. […] As a result, an absorbed dose of 300 ppm by a hand is about corresponding to an absorbed dose of 15 ppm by a whole body (300 ppm*1,250 cm^2 /18,000 cm^2 * 0.75). […] The digital signals were then transmitted to a computer (Pentium 100). When the concentration signal of the hazardous gas contained in the exposure chamber received by the computer was lower than the lower limit of 23.5 ppm, an instruction was generated by the software program and transmitted to activate the automatic injection system to raise quickly the concentration up to the upper limit of 26.5 ppm. […] Throughout the experiment of the present invention, a series of injected doses of the hazardous gas were obtained. The sum of the injected doses was used to compute the absorbed dose of the hazardous gas by the skin.
The rotation speeds of the two fans were adjusted to obtain desired wind velocities and flow streams by using an adjustable resistor. […] When the hand was extended into the exposure chamber, the contact portions of the hand and the exposure chamber were covered with two layers of aluminum foil in conjunction with a transparent plastic bag therebetween. In addition, the upper arm was banded with the 3M bandage to avert the gas leak. Located respectively in the front, the middle and the rear of the exposure chamber was a detector for monitoring the uniformity of the gas concentration distribution and the change in the gas concentration throughout the experiment.
It must be noted here that m1 is equal to the post-calibration injection rate multiplied by the accumulated injection times. […] This implies that only m1 and m2 must be measured with precision.

[5] = tested on: skin; test: Absorbed dose of vapor by skin of an arm in feedback-controlled exposure chamber, six voluntary subjects (Embodiment 1, 300±10 ppm); type: in vivo, human
Experimental: (§2) The injection rate of the injection system was checked with a five-digit balance (Mettler model AT-201, Switzerland). 2-methoxy ethanol was continuously injected into a glass bottle, and six continuous injections were measured to obtain the average value and the coefficient of variation. Each continuous injection had 10 injection does. An average injection dose was obtained from the […] injection doses. The average dose of each ejection was then used as a computation base for checking the injection dose of the system. After each human experiment, the above weight calibration was used again to check the average injection dose of each ejection so as to obtain the relative percentage error of the average injection doses before and after the experiment. The flash evaporation chamber is a small glass chamber which is embraced by a heating strap and a temperature control device, as shown in FIG. 1. The flash evaporation chamber was used to accelerate the evaporation of the liquid 2-methoxy ethanol and to shorten the reaction time of the system. When the evaporation of the liquid was slower than the skin absorption rate, it will cause the injection system to continuously inject the 2-methoxy ethanol, and thus result in an excess absorption dose of the vapor by the skin of the human under test. The flash evaporation chamber of the present invention can avoid this problem by providing with the heating strap.
(§3) The measurement of the absorbed dose of vapor by skin was carried out respectively with each of six voluntary subjects whose personal data are shown in the following Table 3:
(§4) The method of the first embodiment is illustrated in FIG. 1 in which the arm of a subject is shown being put into an exposure chamber. The exposure chamber contains 2-methoxy ethanol having a concentration of 300±10 ppm, with the relative humidity and the temperature of the exposure chamber being respectively 80±2%, and 25±1° C. For details of the control of the first embodiment, please refer to the Preparatory Embodiments described above.
as §1

[6] = as above; type: in vivo, human; details: human, topical or ocular, 300±10 ppm vapor; mean of six subjects; read-out: permeability constant, mean (converted)
Experimental: as §2, §3, §4, §1

[7] = 300±10 ppm vapor, 80±2% RH, 25±1° C., arm, individual subjects 1-6
[8] = 300±10 ppm vapor, mean of six subjects

Structure (SMILES): COCCO [2-methoxy ethanol]
- water solubility [1]: excellent
- dose excreted [2]: < 0.4%
- distribution coefficient of the human blood relative to air [3]: 32,836
- m1 (accumulated doses added to the exposure chamber) [4]: 34.5 mg
- m2 (doses captured by the condensation dehumidifier) [4]: 27.1 mg
- m3 (gas residual left on the exposed arm) [4]: 0.04 mg
- m5 (doses contained in the subject's exhalations) [4]: trace
- m1 (accumulated doses added to stabilize the concentration in the exposure chamber) [5, 7]: 430.00 mg and 296.88 mg and 172.46 mg and 285.11 mg and 350.67 mg and 394.56 mg
- m2 (doses captured by the condensation dehumidifier) [5, 7]: 328.50 mg and 222.75 mg and 137.75 mg and 210.00 mg and 301.00 mg and 304.75 mg
- m3 (gas residual left on the exposed arm after termination of exposure) [5, 7]: 0.35 mg and 0.58 mg and 0.66 mg and 0.63 mg and 0.16 mg
- permeability constant [5, 7]: 5575 ×10⁻⁶ cm/s and 4600 ×10⁻⁶ cm/s and 1650 ×10⁻⁶ cm/s and 4508 ×10⁻⁶ cm/s and 2540 ×10⁻⁶ cm/s and 4469 ×10⁻⁶ cm/s
- skin absorption rate [5, 7]: 18.72 μg/cm^2 /h and 15.45 μg/cm^2 /h and 5.55 μg/cm^2 /h and 15.14 μg/cm^2 /h and 8.52 μg/cm^2 /h and 15.01 μg/cm^2 /h
- Δm (absorbed dose by skin, m1-m2-m3-m4) [5, 7]: 96.11 mg and 68.51 mg and 29.01 mg and 69.44 mg and 44.04 mg and 84.61 mg
- skin absorption rate, mean [5, 8]: 13.07 μg/cm^2 /h
- Δm (absorbed dose by skin), mean [5, 8]: 65.29 mg
- m3 and m4, respectively, relative to the dose of m1 ([5]; of the dose of m1): less than 1%
- Papp [6]: 3890 ×10⁻⁶ cm/s
